The values below come from article PMC10060569 (Frontiers in Pharmacology, 2023).

The target in one series is T1, L191A/S15V-hP2X3R (Homo sapiens, UniProt P56373, L191A/S15V).
T1 construct: expressed in transfected cells; host or cells: Xenopus laevis oocytes (cRNA injection)
T1 sequence (P56373 1-397 S15V/L191A): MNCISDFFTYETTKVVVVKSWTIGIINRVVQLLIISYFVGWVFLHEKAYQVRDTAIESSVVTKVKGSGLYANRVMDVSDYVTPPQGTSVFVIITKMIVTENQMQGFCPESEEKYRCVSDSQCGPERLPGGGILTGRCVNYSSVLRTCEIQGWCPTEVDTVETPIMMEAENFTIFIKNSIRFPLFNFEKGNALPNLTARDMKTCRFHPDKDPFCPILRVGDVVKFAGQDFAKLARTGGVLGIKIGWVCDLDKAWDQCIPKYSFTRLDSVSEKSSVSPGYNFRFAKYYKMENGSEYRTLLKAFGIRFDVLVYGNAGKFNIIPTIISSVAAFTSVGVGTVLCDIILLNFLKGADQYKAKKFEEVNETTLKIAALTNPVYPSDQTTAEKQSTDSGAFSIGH
As to the kind of experiment: TEVC of ATP-induced currents, L191A/S15V-hP2X3R mutant in X. laevis oocytes. The class given is cell-based. Here is the method:
Ion currents mediated by P2X receptors were evoked by the indicated concentration of ATP or α,β-meATP and were recorded 1 or 2 days after cRNA injection at ambient temperature at a holding potential of −60 mV by two-electrode voltage clamp (TEVC) as previously described ([Hausmann et al., 2006]). Calcium-free ORi^− solution (90 mM NaCl, 1 mM KCl, 2 mM MgCl2, 10 mM HEPES, pH 7.4) was used to avoid bias due to calcium-activated chloride channels (CaCC) endogenously expressed in X. laevis oocytes ([Miledi, 1982]; [Methfessel et al., 1986]). For recordings of wt-hP2X7R, the composition of the ORi^− solution was modified according to protocols described previously and contained 100 mM NaCl, 2.5 mM KCl, 1 mM MgCl2, 5 mM HEPES, pH 7.4 ([Klapperstück et al., 2000]). The oocytes were continuously superfused with ORi^− by gravity flow (5–10 ml/min). The agonists ATP or α,β-meATP and the investigated NSAIDs were diluted in ORi^− on the day of the recording. The following agonist concentrations were used for the different P2X subtypes: 1 μM ATP (hP2X1R mutant, hP2X3R, rP2X3R, S^15V-hP2X3R, and S^15V-rP2X3R); 10 μM ATP (hP2X2R and hP2X4R); 300 μM free ATP^4- (hP2X7R); and 1 μM α,β-meATP (hP2X2/3R). […]
In the case of fast-desensitizing P2XR subtypes (P2X1R and P2X3R), ATP is applied five times in repetition, and the ATP-induced current amplitude in the presence (after pre-incubation) of the antagonist (fourth application) is compared to the arithmetic mean of flanking control ATP-induced current amplitudes in the absence of the antagonist (third and fifth ATP application). […] The correction factor was calculated as the ratio of the fourth ATP-induced current amplitude to the third amplitude (Eq. 3) when the experiment was performed in the absence of the antagonist. […] Since the magnitude of the run-down varies from day to day and batch to batch of oocytes, the correction factor was determined on each day of the experiments and was calculated as the arithmetic mean of several recordings (at least 3–5 and on average 5) on each day. […]

In a further series the target is T2, S15V-rP2X3R (Rattus norvegicus, UniProt P49654, S15V).
T2 construct: expressed in transfected cells; host or cells: Xenopus laevis oocytes (cRNA injection)
T2 sequence (P49654 1-397 S15V): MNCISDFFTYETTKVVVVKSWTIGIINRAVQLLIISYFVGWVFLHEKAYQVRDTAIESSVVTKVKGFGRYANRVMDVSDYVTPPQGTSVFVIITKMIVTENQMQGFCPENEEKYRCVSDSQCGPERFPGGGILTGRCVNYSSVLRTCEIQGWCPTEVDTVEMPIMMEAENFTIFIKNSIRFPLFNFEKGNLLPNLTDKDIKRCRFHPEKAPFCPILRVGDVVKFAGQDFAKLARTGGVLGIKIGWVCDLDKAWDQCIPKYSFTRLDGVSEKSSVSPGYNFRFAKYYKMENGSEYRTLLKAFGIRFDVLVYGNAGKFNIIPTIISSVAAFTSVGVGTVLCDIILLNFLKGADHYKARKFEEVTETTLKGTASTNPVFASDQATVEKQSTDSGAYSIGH
Also on record: method as in Obrecht et al., 2019. The following applies: previous screening; ref Obrecht et al., 2019; cited from earlier work.

For series [1] the following is noted: cited from earlier work.

On to `O=C(O)Cc1ccccc1Nc1c(Cl)cccc1Cl` [Diclofenac, diclofenac], for which the inhibition at 3 µM at L191A/S15V-hP2X3R (read-out: % inhibition of 10 µM ATP-induced currents by 3 µM diclofenac) amounted to 7.7%. For the same molecule, the inhibition at 10 µM on L191A/S15V-hP2X3R (read-out: % inhibition of 10 µM ATP-induced currents by 10 µM diclofenac) turned out to be 18.4%. For the same molecule, at L191A/S15V-hP2X3R (read-out: % inhibition of 10 µM ATP-induced currents by 30 µM diclofenac), the inhibition at 30 µM was determined as 37.3%. For the same molecule, on S15V-rP2X3R, the “inhibition of S15V-rP2X3R-mediated currents in screening” value is above 80%. The “suspected cases of ageusia, dysgeusia, or taste disorders reported in the European Union” value in series [1] (EudraVigilance up to 28/11/2022, ref http://www.adrreports.eu/de/) is given as “more than 110 cases”. Moreover, in series [1] (prospective randomized clinical trial, postoperative administration, ref Attri et al., 2015), the “patients reporting an impaired taste sensation” value is listed as 58%.
